Reference: patent US6046218A, “Pyridine derivative and medicament containing the same as an effective ingredient” (SS Pharmaceutical Co., Ltd., priority 1996, dated 2000)
Structures can show the parent of a compound that is named as a salt.

The compounds below were run on IL-5 production (assay: Test 3: inhibition of IL-5 production in human PBMC stimulated with ConA). Conditions: 10^-6 M, 10 μg/ml ConA, 48 hours, read-out: Inhibition rate of IL-5 production.
Format: cell-based
Experimental: Test 3: Test on the inhibition of IL-5 production
The peripheral blood was collected from a normal volunteer and peripheral blood mononuclear cells (PBMC) of the human peripheral blood were separated therefrom by the specific gravity centrifugation method. They were suspended in an AIM-V medium and their cell count was adjusted. To individual wells of a 96-well incubation plate, 1×10^6 cells/ml of PBMC were poured, followed by the addition of a stimulator (10 μg/ml of ConA) and a medicament. The resulting mixture was incubated in 5% CO2 at 37° C. for 48 hours. After incubation, 50 μl of the supernatant were collected and subjected to measurement by a human IL-5 EIA kit (BIO SOURCE, INC.). The inhibition rate was calculated according to the following formula. [formula]

Structure (SMILES) | inhibition at 1 µM [%]
COCCOCOc1cc(/C=C/C(=O)c2ccccc2)ncc1OC [Ex. 48, 5-Methoxy-4-methoxyethoxymethoxy-2-(3-oxo-3-phenyl-1-propenyl)pyridine] | 62.2
COc1cnc(/C=C/C(=O)c2ccccc2[N+](=O)[O-])cc1OC [Ex. 51, 4,5-Dimethoxy-2-[3-(2-nitrophenyl)-3-oxo-1-propenyl]pyridine] | 93.6
COc1cnc(/C=C/C(=O)c2ccc([N+](=O)[O-])cc2)cc1OC [Ex. 52, 4,5-Dimethoxy-2-[3-(4-nitrophenyl)-3-oxo-1-propenyl]pyridine] | 64.2
COc1cnc(/C=C/C(=O)c2ccc(Cl)cc2Cl)cc1OC [Ex. 53, 4,5-Dimethoxy-2-[3-(2,4-dichlorophenyl)-3-oxo-1-propenyl]pyridine] | 75
COc1cnc(/C=C/C(=O)c2c(Cl)cccc2Cl)cc1OC [Ex. 54, 4,5-Dimethoxy-2-[3-(2,6-dichlorophenyl)-3-oxo-1-propenyl]pyridine] | 93.3
COc1cnc(/C=C/C(=O)c2c(OC)cccc2OC)cc1O [Ex. 56, 4-Hydroxy-5-methoxy-2-[3-(2,6-dimethoxyphenyl)-3-oxo-1-propenyl]pyridine] | 79.8
CCOC(=O)CCCOc1cc(/C=C/C(=O)c2ccccn2)ncc1OC [Ex. 70, Ethyl 4-[5-methoxy-2-(3-oxo-3-(2-pyridyl)-1-propenyl]-4-pyridyloxy]butanoate dih ydrochloride] | 81.4
CCOC(=O)CCCOc1cc(/C=C/C(=O)c2cccnc2)ncc1OC [Ex. 71, Ethyl 4-[5-methoxy-2-(3-oxo-3-(3-pyridyl)-1-propenyl)-4-pyridyloxy]butanoate dih ydrochloride] | 93.3
CCOC(=O)CCCOc1cc(/C=C/C(=O)c2ccncc2)ncc1OC [Ex. 72, Ethyl 4-[5-methoxy-2-(3-oxo-3-(4-pyridyl)-1-propenyl)-4-pyridyloxy]butanoate dih ydrochloride] | 84.1
COc1cnc(/C=C/C(=O)C2CCCCC2)cc1OC [Ex. 73, 2-(3-Cyclohexyl-3-oxo-1-propenyl)-4,5-dimethoxypyridine hydrochloride] | 82.3

Each compound was assayed on IL-4 production (assay: Test 1: inhibition of IL-4 production in human T-cell strain ATL-16T(-) stimulated with PMA (R&D Systems EIA)). Conditions: 10^-5 M, ATL-16T(-) 1×10^6 cells/0.5 ml/well, 20 nM PMA, 48 hours, read-out: Inhibition rate of IL-4 production.
Format: cell-based
Experimental: Test 1: Test on the inhibition of IL-4 production
Into individual wells of a 48-well microplate, the human T-cell strain ATL-16T(-) was poured at a concentration of 1×10^6 cells/0.5 ml/well (n=3), followed by the addition of a stimulator (20 nM of PMA) and a medicament at the same time. The resulting mixture was incubated in 5% CO2 at 37° C. for 48 hours. After incubation, 100 μl of the supernatant were collected and subjected to measurement by a human IL-4 EIA kit (R&D SYSTEMS, INC.). The inhibition rate was calculated according to the following formula. [formula]

Structure (SMILES) | inhibition at 10 µM [%]
COCCOCOc1cc(/C=C/C(=O)c2ccccc2)ncc1OC [Ex. 48, 5-Methoxy-4-methoxyethoxymethoxy-2-(3-oxo-3-phenyl-1-propenyl)pyridine] | 111

Same assay, conditions: 10^-6 M, ATL-16T(-) 1×10^6 cells/0.5 ml/well, 20 nM PMA, 48 hours, read-out: Inhibition rate of IL-4 production

Structure (SMILES) | inhibition at 1 µM [%]
COCCOCOc1cc(/C=C/C(=O)c2ccccc2)ncc1OC [Ex. 48, 5-Methoxy-4-methoxyethoxymethoxy-2-(3-oxo-3-phenyl-1-propenyl)pyridine] | 74.7

Same assay, conditions: 10^-7 M, ATL-16T(-) 1×10^6 cells/0.5 ml/well, 20 nM PMA, 48 hours, read-out: Inhibition rate of IL-4 production

Structure (SMILES) | inhibition at 0.1 µM [%]
COCCOCOc1cc(/C=C/C(=O)c2ccccc2)ncc1OC [Ex. 48, 5-Methoxy-4-methoxyethoxymethoxy-2-(3-oxo-3-phenyl-1-propenyl)pyridine] | 50.1

Same assay, conditions: 10^-8 M, ATL-16T(-) 1×10^6 cells/0.5 ml/well, 20 nM PMA, 48 hours, read-out: Inhibition rate of IL-4 production

Structure (SMILES) | inhibition at 0.01 µM [%]
COCCOCOc1cc(/C=C/C(=O)c2ccccc2)ncc1OC [Ex. 48, 5-Methoxy-4-methoxyethoxymethoxy-2-(3-oxo-3-phenyl-1-propenyl)pyridine] | 7.6

These compounds were tested on IL-4 production (assay: Test 2: inhibition of IL-4 production in human T-cell strain ATL-16T(-) stimulated with PMA (Bio Source EIA)). Conditions: 10^-5 M, ATL-16T(-) 5×10^5 cells/0.5 ml/well, 20 nM PMA, 48 hours, read-out: Inhibition rate of IL-4 production.
Format: cell-based
Experimental: Test 2: Test on the inhibition of IL-4 production
Into individual wells of a 48-well microplate, the human T-cell strain ATL-16T(-) was poured at a concentration of 5×10^5 cells/0.5 ml/well (n=3), followed by the addition of a stimulator (20 nM of PMA) and a medicament at the same time. The resulting mixture was incubated in 5% CO2 at 37° C. for 48 hours. After incubation, 50 μl of the supernatant were collected and subjected to measurement by a human IL-4 EIA kit (BIO SOURCE, INC.). The inhibition rate was calculated according to the following formula. [formula]

Structure (SMILES) | inhibition at 10 µM [%]
COc1cnc(/C=C/C(=O)c2ccccc2[N+](=O)[O-])cc1OC [Ex. 51, 4,5-Dimethoxy-2-[3-(2-nitrophenyl)-3-oxo-1-propenyl]pyridine] | 102
COc1cnc(/C=C/C(=O)c2ccc([N+](=O)[O-])cc2)cc1OC [Ex. 52, 4,5-Dimethoxy-2-[3-(4-nitrophenyl)-3-oxo-1-propenyl]pyridine] | 76.1
COc1cnc(/C=C/C(=O)c2ccc(Cl)cc2Cl)cc1OC [Ex. 53, 4,5-Dimethoxy-2-[3-(2,4-dichlorophenyl)-3-oxo-1-propenyl]pyridine] | 105
COc1cnc(/C=C/C(=O)c2c(Cl)cccc2Cl)cc1OC [Ex. 54, 4,5-Dimethoxy-2-[3-(2,6-dichlorophenyl)-3-oxo-1-propenyl]pyridine] | 101
COc1cnc(/C=C/C(=O)c2c(OC)cccc2OC)cc1O [Ex. 56, 4-Hydroxy-5-methoxy-2-[3-(2,6-dimethoxyphenyl)-3-oxo-1-propenyl]pyridine] | 101
CCOC(=O)CCCOc1cc(/C=C/C(=O)c2ccccn2)ncc1OC [Ex. 70, Ethyl 4-[5-methoxy-2-(3-oxo-3-(2-pyridyl)-1-propenyl]-4-pyridyloxy]butanoate dih ydrochloride] | 65.7
CCOC(=O)CCCOc1cc(/C=C/C(=O)c2cccnc2)ncc1OC [Ex. 71, Ethyl 4-[5-methoxy-2-(3-oxo-3-(3-pyridyl)-1-propenyl)-4-pyridyloxy]butanoate dih ydrochloride] | 81.2
CCOC(=O)CCCOc1cc(/C=C/C(=O)c2ccncc2)ncc1OC [Ex. 72, Ethyl 4-[5-methoxy-2-(3-oxo-3-(4-pyridyl)-1-propenyl)-4-pyridyloxy]butanoate dih ydrochloride] | 75.4
COc1cnc(/C=C/C(=O)C2CCCCC2)cc1OC [Ex. 73, 2-(3-Cyclohexyl-3-oxo-1-propenyl)-4,5-dimethoxypyridine hydrochloride] | 86.9

Same assay, conditions: 10^-6 M, ATL-16T(-) 5×10^5 cells/0.5 ml/well, 20 nM PMA, 48 hours, read-out: Inhibition rate of IL-4 production

Structure (SMILES) | inhibition at 1 µM [%]
COc1cnc(/C=C/C(=O)c2ccccc2[N+](=O)[O-])cc1OC [Ex. 51, 4,5-Dimethoxy-2-[3-(2-nitrophenyl)-3-oxo-1-propenyl]pyridine] | 20.5
COc1cnc(/C=C/C(=O)c2ccc([N+](=O)[O-])cc2)cc1OC [Ex. 52, 4,5-Dimethoxy-2-[3-(4-nitrophenyl)-3-oxo-1-propenyl]pyridine] | 48.9
COc1cnc(/C=C/C(=O)c2ccc(Cl)cc2Cl)cc1OC [Ex. 53, 4,5-Dimethoxy-2-[3-(2,4-dichlorophenyl)-3-oxo-1-propenyl]pyridine] | 103
COc1cnc(/C=C/C(=O)c2c(Cl)cccc2Cl)cc1OC [Ex. 54, 4,5-Dimethoxy-2-[3-(2,6-dichlorophenyl)-3-oxo-1-propenyl]pyridine] | 98.7
COc1cnc(/C=C/C(=O)c2c(OC)cccc2OC)cc1O [Ex. 56, 4-Hydroxy-5-methoxy-2-[3-(2,6-dimethoxyphenyl)-3-oxo-1-propenyl]pyridine] | 53.7
CCOC(=O)CCCOc1cc(/C=C/C(=O)c2ccccn2)ncc1OC [Ex. 70, Ethyl 4-[5-methoxy-2-(3-oxo-3-(2-pyridyl)-1-propenyl]-4-pyridyloxy]butanoate dih ydrochloride] | 64.3
CCOC(=O)CCCOc1cc(/C=C/C(=O)c2cccnc2)ncc1OC [Ex. 71, Ethyl 4-[5-methoxy-2-(3-oxo-3-(3-pyridyl)-1-propenyl)-4-pyridyloxy]butanoate dih ydrochloride] | 69.1
CCOC(=O)CCCOc1cc(/C=C/C(=O)c2ccncc2)ncc1OC [Ex. 72, Ethyl 4-[5-methoxy-2-(3-oxo-3-(4-pyridyl)-1-propenyl)-4-pyridyloxy]butanoate dih ydrochloride] | 73.7
COc1cnc(/C=C/C(=O)C2CCCCC2)cc1OC [Ex. 73, 2-(3-Cyclohexyl-3-oxo-1-propenyl)-4,5-dimethoxypyridine hydrochloride] | 51.3

Same assay, conditions: 10^-7 M, ATL-16T(-) 5×10^5 cells/0.5 ml/well, 20 nM PMA, 48 hours, read-out: Inhibition rate of IL-4 production

Structure (SMILES) | inhibition at 0.1 µM [%]
COc1cnc(/C=C/C(=O)c2ccccc2[N+](=O)[O-])cc1OC [Ex. 51, 4,5-Dimethoxy-2-[3-(2-nitrophenyl)-3-oxo-1-propenyl]pyridine] | 30.1
COc1cnc(/C=C/C(=O)c2ccc([N+](=O)[O-])cc2)cc1OC [Ex. 52, 4,5-Dimethoxy-2-[3-(4-nitrophenyl)-3-oxo-1-propenyl]pyridine] | 25.6
COc1cnc(/C=C/C(=O)c2ccc(Cl)cc2Cl)cc1OC [Ex. 53, 4,5-Dimethoxy-2-[3-(2,4-dichlorophenyl)-3-oxo-1-propenyl]pyridine] | 16.7
COc1cnc(/C=C/C(=O)c2c(Cl)cccc2Cl)cc1OC [Ex. 54, 4,5-Dimethoxy-2-[3-(2,6-dichlorophenyl)-3-oxo-1-propenyl]pyridine] | 24.2
COc1cnc(/C=C/C(=O)c2c(OC)cccc2OC)cc1O [Ex. 56, 4-Hydroxy-5-methoxy-2-[3-(2,6-dimethoxyphenyl)-3-oxo-1-propenyl]pyridine] | 47.1
CCOC(=O)CCCOc1cc(/C=C/C(=O)c2ccccn2)ncc1OC [Ex. 70, Ethyl 4-[5-methoxy-2-(3-oxo-3-(2-pyridyl)-1-propenyl]-4-pyridyloxy]butanoate dih ydrochloride] | 64
CCOC(=O)CCCOc1cc(/C=C/C(=O)c2cccnc2)ncc1OC [Ex. 71, Ethyl 4-[5-methoxy-2-(3-oxo-3-(3-pyridyl)-1-propenyl)-4-pyridyloxy]butanoate dih ydrochloride] | 68.6
CCOC(=O)CCCOc1cc(/C=C/C(=O)c2ccncc2)ncc1OC [Ex. 72, Ethyl 4-[5-methoxy-2-(3-oxo-3-(4-pyridyl)-1-propenyl)-4-pyridyloxy]butanoate dih ydrochloride] | 69.1
COc1cnc(/C=C/C(=O)C2CCCCC2)cc1OC [Ex. 73, 2-(3-Cyclohexyl-3-oxo-1-propenyl)-4,5-dimethoxypyridine hydrochloride] | 21.4

Same assay, conditions: 10^-8 M, ATL-16T(-) 5×10^5 cells/0.5 ml/well, 20 nM PMA, 48 hours, read-out: Inhibition rate of IL-4 production

Structure (SMILES) | inhibition at 0.01 µM [%]
COc1cnc(/C=C/C(=O)c2ccccc2[N+](=O)[O-])cc1OC [Ex. 51, 4,5-Dimethoxy-2-[3-(2-nitrophenyl)-3-oxo-1-propenyl]pyridine] | 26.3
COc1cnc(/C=C/C(=O)c2ccc([N+](=O)[O-])cc2)cc1OC [Ex. 52, 4,5-Dimethoxy-2-[3-(4-nitrophenyl)-3-oxo-1-propenyl]pyridine] | 11.6
COc1cnc(/C=C/C(=O)c2ccc(Cl)cc2Cl)cc1OC [Ex. 53, 4,5-Dimethoxy-2-[3-(2,4-dichlorophenyl)-3-oxo-1-propenyl]pyridine] | 23.1
COc1cnc(/C=C/C(=O)c2c(Cl)cccc2Cl)cc1OC [Ex. 54, 4,5-Dimethoxy-2-[3-(2,6-dichlorophenyl)-3-oxo-1-propenyl]pyridine] | 6.1
COc1cnc(/C=C/C(=O)c2c(OC)cccc2OC)cc1O [Ex. 56, 4-Hydroxy-5-methoxy-2-[3-(2,6-dimethoxyphenyl)-3-oxo-1-propenyl]pyridine] | 42.1
CCOC(=O)CCCOc1cc(/C=C/C(=O)c2ccccn2)ncc1OC [Ex. 70, Ethyl 4-[5-methoxy-2-(3-oxo-3-(2-pyridyl)-1-propenyl]-4-pyridyloxy]butanoate dih ydrochloride] | 60
CCOC(=O)CCCOc1cc(/C=C/C(=O)c2cccnc2)ncc1OC [Ex. 71, Ethyl 4-[5-methoxy-2-(3-oxo-3-(3-pyridyl)-1-propenyl)-4-pyridyloxy]butanoate dih ydrochloride] | 61.9
CCOC(=O)CCCOc1cc(/C=C/C(=O)c2ccncc2)ncc1OC [Ex. 72, Ethyl 4-[5-methoxy-2-(3-oxo-3-(4-pyridyl)-1-propenyl)-4-pyridyloxy]butanoate dih ydrochloride] | 68.8
COc1cnc(/C=C/C(=O)C2CCCCC2)cc1OC [Ex. 73, 2-(3-Cyclohexyl-3-oxo-1-propenyl)-4,5-dimethoxypyridine hydrochloride] | 11.9
